This passage reports melting point results from a melting point compilation (Tetko et al.; mined from patent text by program, amines drawn as free bases though some values may be those of a salt).

Regarding `CCSCc1cc2cc(CN3CCOCC3)cc3c(=O)c(C(=O)NCc4ccc(Cl)cc4)cn1c23`, the melting point is 177 to 178 °C.

`CCOC(=O)c1ncc2[nH]c3ccc(C(=O)OCc4ccccc4)cc3c2n1` yielded a melting point of 271 to 272 °C.

In turn, `O=P(O)(O)Cc1ccc2ccccc2c1` returned a melting point of 234 to 236 °C.

In the case of `OC1(c2ccc(-c3ccccn3)cc2)CN2CCC1CC2` (configuration not stated), the melting point fell in the range of 237 to 238 °C.

Regarding `CCCCCCCNC(=O)N(CCC)c1cccc(-c2ccc(CCC(=O)O)cc2)c1`, the melting point amounted to 79 °C.

As for `Cn1ccc2cc(N3Cc4ccc(O)cc4C3=O)ccc21`, the melting point fell in the range of 230 to 235 °C.

With `COc1ccc(S(=O)(=O)n2ccc3ccnc(-c4ccncc4)c32)cc1`, the melting point fell in the range of 193 to 194 °C.

For the molecule `O=C1Nc2c(Br)cncc2C1(Br)Br`, the melting point turned out to be 250 °C.

`Cc1cccc([N+](=O)[O-])c1CNc1cccn2c(Cl)c(C)nc12` registered a melting point of 142 to 144 °C.

Molecule `COc1ccc(CNc2n[nH]cc2C)cc1OC1CCCC1` yielded a melting point of 76 to 77 °C.

As for `CCCCCCCCCCC1(CCCCCCCCCC)c2cc(C=Cc3ccncc3)ccc2-c2ccc(N(c3ccccc3)c3ccccc3)cc21`, the melting point is 88.4 to 89.3 °C.

The molecule `COC(=O)c1ncn2c1CN(C)C(=O)c1sccc1-2` gave a melting point of 244 to 245 °C.

Consider `COc1ccc(C2=NNC(=O)CC2)cc1CO`, for which the melting point fell in the range of 207 to 208 °C.

Turning to `COc1ccc(COc2c(C)c(C)c3c(c2C)C(c2ccc(N(C)C)cc2)C(C)(C)O3)cc1` (configuration not stated), the melting point was 105 to 107 °C.

For the molecule `O=C(O)c1cc(O)cc2ccccc12`, the melting point was in the range of 210 to 212 °C.

Take `O=Cc1ccc(-c2ccc(Br)cc2)nc1`: the melting point lay within 108 to 109 °C.

Regarding `O=C1CCCC(c2ccccc2)(c2ccccc2)N1`, the melting point fell in the range of 193 to 196 °C.

Turning to `Nc1ccc([N+](=O)[O-])cc1S(=O)(=O)CCc1ccc(S(=O)(=O)O)cc1`, the melting point was 248 to 253 °C.

For `COc1ccc(CCC(C)N(Cc2ccccc2)CC(O)c2ccc(OCc3ccccc3)c(N)c2)cc1OC` (configuration not stated), the melting point came to 115 °C.

Take `CCn1nc(O)nc1S`: the melting point is 193 to 195 °C.

With `O=C(O)CCSC(C(=O)O)c1ccccc1CCCCCCCCc1ccccc1` (configuration not stated), the melting point lay in the range of 86 to 87 °C.

`COc1cc2c(=O)c(C#N)c[nH]c2cc1F` came in with a melting point of 147 to 149 °C.

Turning to `CCCCSc1ccc(C(=O)Nc2ccc3cc(CN4CCCC4)cnc3c2C)cc1`, the melting point turned out to be 147 °C.

`OC(CCCN1CC=C(c2noc(C3CC3)n2)CC1)c1ccc(F)cc1` (configuration not stated) had a melting point of 89 to 92 °C.

In turn, `CCOC(=O)c1cc2c3n(ccc-2n1)C([N+](=O)[O-])C(C)=N3` (configuration not stated) displayed a melting point of 300 to 302 °C.

`CCOC(=O)c1cc(C(=O)OCC)n(C(C)c2ccccn2)n1` (configuration not stated): the melting point lay in the range of 63 to 65 °C.

Regarding `CCCCCCCCCCCCCCCCCCOc1cc(OCCCOc2ccccc2)cc(N(CC(=O)O)CC(=O)O)c1`, the melting point lay within 99 to 102 °C.

In the case of `NC(CN1C(=O)C2(COc3cc4c(cc32)OCO4)c2ccccc21)=NO` (configuration not stated), the melting point was 235 to 238 °C.

Turning to `CCCCCCCCCCCCc1ccccc1C(Sc1nc(C)c(C(=O)O)s1)C(=O)O` (configuration not stated), the melting point is 88 to 91 °C.

`COc1ccc2cccc(Cc3ccccc3)c2c1O`: the melting point lay in the range of 67 to 71 °C.

Molecule `CSc1nc(C)c(Cc2cccnc2)c(=O)[nH]1` showed a melting point of 208 to 211 °C.

Molecule `NC(=NCC(F)(F)F)Nc1ccnc(SCCCNC=O)n1` yielded a melting point of 165 to 166 °C.

Take `COc1ccc(-c2cc3cc(F)c(F)cc3[nH]2)cc1NCc1ccc([N+](=O)[O-])cc1`: the melting point lay in the range of 181 to 182 °C.

In the case of `CSc1sc(C(N)=O)c2c1-c1[nH]ncc1CC2`, the melting point fell in the range of 210 to 211 °C.

Turning to `O=[N+]([O-])c1cccc(S(=O)(=O)NCCc2ccncc2)c1`, the melting point was determined as 138 °C.

As to `O=C(O)CCCOc1cccc(-c2n[nH]c3c2Cc2ccccc2-3)c1`, the melting point was in the range of 216 to 217 °C.

The molecule `COc1ccc(-n2nc(Sc3ccc(C)c(C)c3)c(C)c(C#N)c2=O)cc1` displayed a melting point of 158 to 160 °C.

For the molecule `O=C(O)c1ccc2c(c1)C(=O)N(c1ccccc1)C2=O`, the melting point was in the range of 257 to 258 °C.

The molecule `CCC(=O)NCCC1CCc2ccc3nn(C)cc3c21` (configuration not stated) returned a melting point of 105 to 107 °C.

Consider `Cc1cc(CCCCCOc2ccc(C3=NCCO3)cc2C=CBr)on1`, for which the melting point lay in the range of 94 to 96 °C.

In turn, `COC1=C(C)C(=O)C2=C(C1=O)C(COC(N)=O)C1(OC)C3NC3CN21` (configuration not stated) gave a melting point of 161 °C.

The molecule `O=C(O)c1ccccc1OCCOc1cccc2ccccc12` gave a melting point of 205 to 207 °C.

As for `O=C1C=CC(O)(c2nc3ccccc3s2)C=C1`, the melting point was 63 to 66 °C.

For the molecule `Cc1csc(=Nc2ccc(C(C)C(=O)O)c(Cl)c2)n1C` (configuration not stated), the melting point is 132 to 133 °C.

Molecule `CC1C(=O)C(c2ccc(S(C)(=O)=O)cc2)=C1c1ccccc1` (configuration not stated) returned a melting point of 121 to 122 °C.

The molecule `O=C(c1cc(C(F)(F)F)cc(C(F)(F)F)c1)N1CCN(CCCC2(c3ccc(F)cc3)OCCO2)C[C@H]1Cc1c[nH]c2ccccc12` came in with a melting point of 145 to 146 °C.

For the molecule `CCc1cc(OCc2cccc(C(=O)OC)c2)cc(O)c1C(C)=O`, the melting point is 132 °C.

Molecule `CC1Nc2ccc(-c3ccc(F)c(Cl)c3)cc2C(C)(C)O1` (configuration not stated) came in with a melting point of 173 to 175 °C.

Turning to `CC(C)(C)OC(=O)NC12CCC1CN(Cc1ccccc1)C2` (configuration not stated), the melting point is 69 to 70 °C.

On to `CCc1cc(-c2nnc3c4ccccc4c(OCc4ncnn4C)nn23)no1`, for which the melting point was in the range of 240 to 242 °C.

`CNC(=S)Nc1ccc2c(c1)C(=O)NC(=O)C2(C)C`: the melting point is 206 to 207 °C.

Molecule `CCOC(=O)/C=C/c1ccc(OC(C)=O)c(Cl)c1` yielded a melting point of 59 to 61 °C.

`NNC(=O)c1ccc(OCc2ccccc2)c(Cl)c1` returned a melting point of 168 to 171 °C.

For `COC(=O)/C=C/C1=C(C)C2(CCC1(C)C)SCCS2`, the melting point is 79.5 to 88.1 °C.

`CCOC(=O)C(O)(CC(C)(C)c1ccc(OC)cc1)C(F)(F)F` (configuration not stated) came in with a melting point of 79 to 80 °C.

Molecule `CC(=O)OC1C(N2CCCC2=O)c2sccc2OC1(C)C` (configuration not stated) showed a melting point of 92 to 93 °C.

As for `NC(=O)N(O)Cc1ccc2c(c1)CCN2Cc1ccccc1`, the melting point was determined as 107 °C.

In turn, `C=Cc1nc(-c2ccco2)c2ncn(Cc3ccc(OC)cc3)c2n1` showed a melting point of 94 to 95 °C.

For `COC(=O)CS(=O)(=O)CCCC=C1SC=CS1`, the melting point was 85 to 86 °C.

As to `CCC(C)(C)c1cccc(NC=O)c1Br`, the melting point fell in the range of 88 to 89 °C.

`C=CCSc1cn(C)cc(-c2ccccc2)c1=O` had a melting point of 136 to 138 °C.

`CC(=O)N1CCC(c2ccccc2)c2cccc(CCN3CCN(c4nsc5ccccc45)CC3)c21` (configuration not stated): the melting point turned out to be 97 °C.

For the molecule `CCOC(=O)c1cc(=O)c2cc(O)c(=O)ccc2[nH]1`, the melting point lay within 169 to 172 °C.

Consider `CCOC(=O)Nc1cc(F)cc(CCCCC(=O)OC)c1`, for which the melting point lay in the range of 61 to 62 °C.

For the molecule `CC(C)n1nc(-c2cnc3[nH]cc(C(=O)N[C@H](C)C(=O)N4CC(C#N)C4)c3n2)c2ccc(Cl)cc21`, the melting point was in the range of 204 to 208 °C.

In the case of `O=C(O)CCCC(=O)Nc1ccc(N2CCN(C3(c4ccc(-c5ccccc5)cc4)C(=O)NC(=O)NC3=O)CC2)cc1`, the melting point fell in the range of 268 to 269 °C.

Turning to `CC(=O)N1N=C(c2ccc(N)cc2)c2cc3c(cc2C=C1C)OCO3`, the melting point is 175 to 180 °C.

`Cn1c(=O)ccn(C2C=CC(CO)O2)c1=O` (configuration not stated) returned a melting point of 203 to 204 °C.

`[N-]=[N+]=CC(=O)CC1CCCCC1` showed a melting point of 58 to 62 °C.

In turn, `CCCCOC1C=CC(=O)N1S(=O)(=O)c1cccc(C(F)(F)F)c1` (configuration not stated) displayed a melting point of 42 to 43 °C.

`Cc1nc(-c2ccc(C(=O)Nc3ccc(Cl)cc3)cc2)sc1C(=O)O` gave a melting point of 276 to 278 °C.

`O=[N+]([O-])c1ccc(C=C2c3ccccc3C=Cc3ccccc32)cc1`: the melting point worked out at 152 °C.

`COc1cccc(-c2nc(N)nc(Nc3cccc([N+](=O)[O-])c3)n2)c1` yielded a melting point of 197 °C.

Turning to `COC(=O)c1ccc(N2CCN(Cc3ccccc3)CC2)cc1`, the melting point lay within 105 to 107 °C.

`CCc1cccc2c1CCNC2=O` had a melting point of 123 to 126 °C.

Consider `C=CCOc1ccc(S(=O)(=O)N2CCN(C)CC2)cc1-c1nc2c(CCC)nn(C)c2c(=O)[nH]1`, for which the melting point was in the range of 151 to 153 °C.

In the case of `N#Cc1cccc(COc2ncc(F)c(NC(=O)NCc3ccccc3F)n2)c1`, the melting point lay within 177 to 178 °C.

`C[C@@H]1N=C(c2ccccc2)c2cc(N)ccc2N(C)C1=O` registered a melting point of 219 to 221 °C.

Turning to `COc1nc2nc(SCc3ccccc3)nn2cc1C`, the melting point fell in the range of 145 to 146 °C.

For `O=C(N[C@H]1CCC[C@@H](CN2CC=C(c3ccccc3)CC2)C1)c1ccccc1`, the melting point lay in the range of 200 to 204 °C.

Consider `CCOC(=O)c1cn(CC)c2c(F)c(F)c(F)c(F)c2c1=O`, for which the melting point fell in the range of 217 to 220 °C.

On to `Clc1ccc(C(c2ccccc2)c2ccccc2)cn1`, for which the melting point was 69.5 to 71 °C.

With `O=COCC#Cc1cc(F)c2ncc(C(=O)NCc3ccc(Cl)cc3)c(O)c2c1`, the melting point was in the range of 231 to 233 °C.

Molecule `OCCc1ccc(OCc2coc(/C=C/c3ccccc3)n2)cc1` yielded a melting point of 123 to 124 °C.

Take `CCC1(CC(=O)O)OCCc2c1[nH]c1ccccc21` (configuration not stated): the melting point is 135 to 136 °C.

`CC(COc1ccc(/C=C/C(=O)O)cc1)N(C)C` (configuration not stated) came in with a melting point of 231 °C.

The molecule `CNC(=O)Nc1snc(OC(C)C)c1C#N` displayed a melting point of 238 °C.

On to `CC(C)c1cc(C(=O)Nc2ccc(C(=O)O)c(O)c2)sc1C(C)C`, for which the melting point was in the range of 129 to 130 °C.

`Cc1cn(-c2cccc(C3=Nc4ccc(-c5ccc(F)cc5)cc4NC(=O)C3)c2)cn1` gave a melting point of 215 °C.

Consider `CCOC(=O)CCc1cnn2c(N(C)c3ccccc3)ncnc12`, for which the melting point is 74 °C.

Consider `CN1C(=O)C(=CNc2ccncc2)C(=O)N(C)C1=O`, for which the melting point lay within 233 to 235 °C.

The molecule `COc1ccc(CC#Cc2ccc3c(c2)c(=O)n(Cc2ccccc2)c2nncn32)cc1` had a melting point of 267 °C.

The term melting point denotes the temperature, or range, at which the solid turns liquid.
